Source: PubChem BioAssay AID1671331

Target: Serine/threonine-protein kinase Nek6 (Homo sapiens) (UniProt Q9HC98)
Experiment: NEK6 kinase inhibitors, dose response, biochemical, Z'-LYTE FRET, direct format, recombinant human (AID 1671331)
Conditions: Z'-LYTE FRET kinase activity

Sequence of Serine/threonine-protein kinase Nek6 (Homo sapiens) (Q9HC98 whole entry, looked up): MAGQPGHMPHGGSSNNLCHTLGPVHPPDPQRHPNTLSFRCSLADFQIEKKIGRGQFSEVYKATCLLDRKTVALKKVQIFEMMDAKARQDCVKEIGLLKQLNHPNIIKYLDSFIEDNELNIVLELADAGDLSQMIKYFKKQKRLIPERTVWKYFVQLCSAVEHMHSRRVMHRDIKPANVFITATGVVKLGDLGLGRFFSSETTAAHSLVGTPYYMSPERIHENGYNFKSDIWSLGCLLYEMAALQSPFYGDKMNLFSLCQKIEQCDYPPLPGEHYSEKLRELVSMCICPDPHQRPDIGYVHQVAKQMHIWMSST

For CN1C(=O)C2(Cc3cn(C45CC67SSC(CO)(C(=O)N6C4Nc4ccccc45)N(C)C7=O)c4ccccc34)SSC1(CO)C(=O)N2C (stereo unspecified), the IC50 was 59 nM.
